From patent publication US7141541B1, “Use of peptides” (University Court of the University of Dundee, priority 1999, dated 2006)
Where no end group is shown, it is not given here.

Key:
MRC5 cells [1] = assay: FACS analysis of propidium iodide-stained cells; assay type: cell-based; settings: 20 μM, 40 min
[2] = tested on: HaCaT, Swiss 3T3, RATI and IIeLa cells; assay: cell survival in other cell-types; assay type: cell-based; settings: results not shown
MRC5 cells [3] = assay: mitochondrial permeability transition (JC1 dye, confocal microscopy); assay type: cell-based; settings: 10 μM peptide, serum-starved MRC5 cells
Protocol: (§1) MRC5 cells were incubated with 10 μM Hu4G peptide for 10 min. Cells visualised with fluorescein by fluorescence microscopy. […] 80% of cells incubated with the 10 μM Hu4G peptide fluoresced positive. d) Images of DAPI-stained MRC5 cells incubated with either 20 μM Hu4G or Hu4G YLL-AAA peptide for 40 min. Arrows indicate the position of a cell with either a condensed nucleus (top right) or a nucleus with a punctate appearance (bottom left). e) Visualisation of effects on the MPT. Serum-starved MRC5 cells were loaded with 0.1 μM JCl for 30 min prior to addition of 10 μM peptide. Changes in mitochondrial permeability were viewed by laser scanning confocal microscopy (krypton/argon laser) using identical setting. Green channel: excitation 488 nm/emission 522 nm. Red channel: excitation 568 nm/emission 585 nm. Channels were collected separately to avoid cross over. Images were taken 5 min after addition of the peptide;
An early event considered decisive in apoptosis is the opening of the mitochondrial permeability transition (MPT) pore (20–22). To characterise further the eIF4E-binding peptide-induced cell death, the development of the MPT was investigated in living MRC5 cells loaded with the fluorescent dye, JC1 (21).

MRC5 cells [4] = assay: cell survival by MTT assay; assay type: cell-based; settings: various concentrations, 72 h serum-starved MRC5 cells, FIGS. 13b,c,d
Protocol: FIGS. 13a–d are graphs showing cell survival (% of control, untreated cells) as measured by MTT assay. a) Lane 1: 10 μM BP2 peptide added to serum-fed cells or Lane 2, 3, 4: 10 μM BP2 peptide added to 24 h, 48 h or 72 h serum-starved cells respectively. Lane 5: 10 μM BP2 YLL-AAA added to 72 h serum starved cells. Lane 6: 72 h serum starved cells incubated in 10% serum for 1 h prior to addition to 10 μM BP2 peptide. Lane 7: 72 h serum starved cells incubated with 100 μg/ml cycloheximide followed by a 1 h incubation with 10% serum prior to the addition of 10 μM BP2 peptide. In all cases the cells were then further incubated for 1 h in 0.1 mg/ml MTT. Cells were lysed in DMSO and absorbance was measured at […]. b–d) Varying concentrations of peptides were added to 72 h serum starved MRC5 cells. After 30 min incubation the cells were then further incubated for 1 h in 0.1 mg/ml MTT. Cells were lysed in DMSO and absorbance was measured at 570 nm.

MRC5 cells [5] = assay: peptide-induced cell death (apoptosis) in MRC5 cells; assay type: cell-based
Description: FIG. 8 is a table illustrating the induction of apoptosis by eIF4G peptides in MRC5 cells;
FIG. 9 is a summary of the results of inhibition of eIF4G(413-424)-induced apoptosis;

MRC5 cells [6] = assay: MTT assay with general translation inhibitors (FIG. 16); assay type: cell-based; settings: serum deprived cells
Protocol: (§2) FIG. 16 illustrates that eIF4E binding peptide cell death is not through eIF4E's known role in mRNA translation. a) 72 h serum-starved MRC5 cells were treated with 100 μg/ml and 10 μg/ml cylcoheximide, 1 μg/ml and 0.1 μg/ml pactamycine or 10 μM Hu4G peptide for 2 h prior to a MTT assay. Cells were pulsed labelled with [^35S]methionine for 30 min after addition of the inhibitors/peptide. The incorporation of [^35S]methionine into protein was determined following hot trichloroacetic acid precipitation. b) 72 h serum-starved MRC5 cells were treated with 100 μg/ml cycloheximide (Chx), 1 μg/ml pactamycine (Pact) or c) MRC5 cells which had been starved of serum for 72 h were pre-incubated with 100 μg/ml cycloheximide or 1 μg/ml pactamycine for 30 min prior to addition of 10 μM Hu4G peptide. Cells were then further incubated for 1.5 h prior to a MTT assay. Results from three independent experiments (+/− SEM).

MRC5 cells [7] = assay: [35S]methionine incorporation into protein; assay type: cell-based; settings: serum deprived cells, 30 minutes
Protocol: as §2
Serum deprived cells were treated with the general translation inhibitors Cyclohexamide or Pactamycin at indicated concentrations or the H4G peptide in the presence of 35S-Met for 30 minutes (see FIGS. 16a,b). Cells were lysed and the amount of translation was estimated by counting incorporated 35S-Met in precipitated protein fractions.

HaCaT cells = assay: cytotoxic or cytostatic effect on HaCaT cells; assay type: cell-based
MRC5 cells [8] = assay: DAPI staining of cell nuclei; assay type: cell-based; settings: 20 μM, 40 min
Protocol: as §1

MRC5 cells [9] = assay: TUNEL analysis; assay type: cell-based; settings: 10 μM peptide, 10 min
Protocol: as §1

[10] = biological target: T1, eIF4E in MRC5 cell lysate (Homo sapiens, UniProt P06730); assay: pull-down of eIF4E from MRC5 cell lysate; assay type: binding; settings: 0.2 mM peptide, 200 μg MRC5 cell lysate, 1 h at 4° C.
T1 construct: endogenous in cells; host or cells: MRC5
Protocol: (§3) Sequences of biotinylated, penetratin-linked peptides. U=Norvaline, a substitution for cysteine. Conserved residues that are important in binding to eIF4E are underlined. b). In vitro binding assay. i) 1 μg recombinant eIF4E was incubated with 0.2 mM biotinylated peptides in a total volume of 50 μl wash buffer (1×PBS/250 mM Kcl) for 1 h at 4° C. ii) 0.2 mM Hu4G or Hu4G YLL-AAA was incubated with 200 μg MRC5 cell lysate for 1 h at 4° C. in a total volume of 50 μl wash buffer. In all cases the biotinylated peptides and associated proteins were pulled down using streptavidin agarose. The proteins were separated by SDS PAGE and subjected to Western blotting using anti-eIF4E antibody. Detection was by ECL;

recombinant human eIF4E = recombinant human eIF4E (Homo sapiens, UniProt P06730); assay: in vitro binding (pull-down) assay with eIF4E; settings: FIG. 4, FIG. 5
Protocol: as §3
In order to study directly the role of eIF4E in cell transformation, a series of biotinylated synthetic peptides (Peptides synthesised by Cyclacel) corresponding to the eIF4E interacting domain (binding motif) of human eIF4G, and wheat eIF4G and alanine substituted peptides thereof were synthesised (see FIG. 12a) and tested for their capacity to interact with ^35S-Met labelled in vitro translated human eIF4E (NB. Peptides BP1 and BP1 YLM-AAA were not biotinylated). Peptides were coupled to streptavidin coated agarose beads by a N-terminus linked biotin group and washed in PBS/0.2% Tween 3× before being incubated for 1 hour at +4° C. with in vitro translated human eIF4E. Beads were washed as above and boiled for 5 min. in SDS loading buffer before the peptide bound proteins were separated on a 10% SDS gel. The bands were visualised by autoradiography.

T1 sequence (P06730 whole entry): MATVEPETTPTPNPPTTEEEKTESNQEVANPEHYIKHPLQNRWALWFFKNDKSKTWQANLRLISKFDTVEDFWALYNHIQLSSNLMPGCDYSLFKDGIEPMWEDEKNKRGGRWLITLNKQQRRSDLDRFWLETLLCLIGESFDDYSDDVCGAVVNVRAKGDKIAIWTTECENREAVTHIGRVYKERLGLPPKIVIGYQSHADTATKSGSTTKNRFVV
Sequence of recombinant human eIF4E (P06730 whole entry): as above

## Hu4G: biotinylated, penetratin-linked peptide of the eIF4E binding motif of human eIF4G (KKRYDREFLLGFRQIKIWFQNRRMKWKK; also: biotinylated)
MRC5 cells [1]
  DNA profile: shift in the DNA profile from G0/1 to sub G0/1
[2]
  cell survival: rapid cell death
MRC5 cells [3]
  changes in JC1 fluorescence (MPT pore opening): rapid increase
  time to increase in green fluorescence with loss of orange fluorescence: ≤ 5 min
MRC5 cells [4]
  cell death / cell viability: rapid, dose-dependent, cell death
MRC5 cells [5]; FIG. 9
  effect of limited serum treatment on sensitivity to the peptide: Resistance
MRC5 cells [5]; serum starved cell lines, FIG. 8
  cell death (possibly by apoptosis): caused rapid cell death
MRC5 cells [6]
  cell killing: they die
MRC5 cells [7]
  incorporation of 35S-Met (translation): do not incorporate 35S-Met
HaCaT cells; 60 h serum starved cells
  time until cells began to die after peptide treatment: ≤ 15 min
HaCaT cells; HaCaT cells, <24 h with 20 μM
  effect with short treatment: no effect observed
HaCaT cells; selected cell lines
  cytotoxic or cytostatic effect: exhibited a cytotoxic or cytostatic effect on selected cell lines
MRC5 cells [8]
  nuclear condensation: signs of nuclear condensation
MRC5 cells [9]
  cells fluoresced positive (TUNEL): 80%
[10]
  binding of eIF4E in cell lysates: bound eIF4E in cell lysates
Recombinant human eIF4E
  binding to recombinant human eIF4E in vitro: found to bind recombinant human eIF4E in vitro
